Laboratory results reported in ChEMBL document CHEMBL1153835, “Targeting the calcineurin pathway enhances ergosterol biosynthesis inhibitors against Trichophyton mentagrophytes in vitro and in a human skin infection model” (Antimicrob Agents Chemother, 2007).
≈ marks a conversion by molar mass, not a printed value. Calls of active or inactive are those of the source. The rule behind the calls is not given here.

Legend:
[1] = test system: Trichophyton mentagrophytes; assay: Antifungal activity against Trichophyton mentagrophytes DUMC112.02 by CLSI protocol; type: functional
[2] = test system: Trichophyton mentagrophytes; assay: Antifungal activity against Trichophyton mentagrophytes DUMC160.03 by CLSI protocol; type: functional
Zone of skin = assay: Toxicity to human skin assessed as damage of skin integrity at 2 fold MIC administered 30 mins post inoculation followed by once in every 2 days for 7 days by scanning electron microscopy; type: tissue-based
[3] = test system: Trichophyton mentagrophytes; assay: Antifungal activity against Trichophyton mentagrophytes DUMC160.03 infected in human skin at 2 fold MIC administered 30 mins post infection followed by once in every 2 days for 7 days by scanning electron microscopy relative to control; type: functional, organism-based

| SMILES | MIC [1] | MIC80 [1] | MIC [2] | MIC80 [2] | Activity (Zone of skin) | Activity [3] |
| --- | --- | --- | --- | --- | --- | --- |
| OC(Cn1cncn1)(Cn1cncn1)c1ccc(F)cc1F [FLUCONAZOLE] | 8 µg/mL (≈ 26.1 µM) | 16 µg/mL (≈ 52.2 µM) | 8 µg/mL (≈ 26.1 µM) | 16 µg/mL (≈ 52.2 µM) | Non-toxic | Active |
| C=CC[C@@H]1/C=C(\C)C[C@H](C)C[C@H](OC)[C@H]2O[C@@](O)(C(=O)C(=O)N3CCCC[C@H]3C(=O)O[C@H](/C(C)=C/[C@@H]3CC[C@@H](O)[C@H](OC)C3)[C@H](C)[C@@H](O)CC1=O)[C@H](C)C[C@@H]2OC [TACROLIMUS ANHYDROUS] | 1 µg/mL (≈ 1.24 µM) | 1 µg/mL (≈ 1.24 µM) | 1 µg/mL (≈ 1.24 µM) | 1 µg/mL (≈ 1.24 µM) | Non-toxic | inactive |
| CN(C/C=C/C#CC(C)(C)C)Cc1cccc2ccccc12 [TERBINAFINE] | 0.004 µg/mL (≈ 0.0137 µM) |  | 0.0312 µg/mL (≈ 0.107 µM) |  | Non-toxic | Active |
| C/C=C/C[C@@H](C)[C@@H](O)[C@H]1C(=O)N[C@@H](CC)C(=O)N(C)CC(=O)N(C)[C@@H](CC(C)C)C(=O)N[C@@H](C(C)C)C(=O)N(C)[C@@H](CC(C)C)C(=O)N[C@@H](C)C(=O)N[C@H](C)C(=O)N(C)[C@@H](CC(C)C)C(=O)N(C)[C@@H](CC(C)C)C(=O)N(C)[C@@H](C(C)C)C(=O)N1C [CYCLOSPORINE] | 2 µg/mL (≈ 1.66 µM) | 2 µg/mL (≈ 1.66 µM) | 1 µg/mL (≈ 0.832 µM) | 8 µg/mL (≈ 6.65 µM) |  |  |
